Assay results: patent US12091650B2, “Development of spinal cord on a microfluidic chip” (EMULATE, INC., priority 2016, dated 2024)
Entries after “also recorded” stand apart in the source; their conditions may differ.

Tests used:
neurons seeded in chip = type: cell-based, human
[1] = test system: SC-Chip neurons (lines 83GFP and 00iCTR); type: cell-based, human
[2] = test system: blood brain barrier (BBB) on-chip; type: in vitro ADME, human; settings: FIG. 46A, % Dextran (fluorescence)
Method: (§1) In some embodiments, methods for seeding cells on-chip are provided, as follows for one example: Day—1: Activate and Coat Chips, Day 0: Seed HBMECs, Astrocytes and Pericytes.; Day 1: Initiate flow of media @60 μl/hr. Bottom channel only or Top and bottom channels.; Day 2: Initiate permeability assay: Dextran+ Serum proteins+ Compounds of interest.; Day 3: End permeability assay. Collect media and freeze.; Day 4: Test permeability modulators/experimental stimuli Day 5: Repeat permeability assay.; Day 6: End permeability assay—Collect media and freeze. Fix or lyse chips.

iBMEC barrier function = assay: TEER measurement on prototype TEER chips under flow; type: cell-based, human; settings: FIG. 14A, chips under flow then exposed to TNFa
Method: Cells were plated on tall channel PDMS chips equipped with incorporated gold electrodes on each channel (see FIG. 13A). Post seeding of BMECs, transendothelial electrical resistance was measured by connecting the electrodes to an EVOM2 voltohmmeter (see FIG. 13B). […] The “damaged” chip was a failure due to the TEER-Chips being a prototype.
Higher TEER values generally indicate a tighter barrier, which is typically desirable for a blood-brain barrier.

[3] = test system: BMECs seeded on a microfluidic device; assay: Paracellular permeability assay with Dextran-FITC on chip; type: cell-based, human; settings: FIG. 14B, TNFa exposure
Method: Albumin or Dextran conjugated to a fluorescent probe (e.g., FITC or TRITC) are frequently used to monitor changes in leakage, and thus barrier function. In this case, Dextran-FITC, a green fluorescent molecule of 4 KDa, or sodium fluorescein (a 0.3 KDa molecule), was added to the bottom (“blood side”) channel. Paracellular permeability was calculated by measuring the permeability of the fluorescent molecule on the Top (“brain side”) channel. […] FIG. 14B involves TNF-alpha exposure, but the readout is membrane permeability as measured by Dextran-FITC.

[4] = test system: blood brain barrier (BBB) on-chip, iPS-derived brain endothelial cells; assay: Barrier function test with human serum proteins (ELISA); type: in vitro ADME; settings: FIG. 47, ELISA
Method: as §1

NC1=N[C@H](O)[C@H]2[C@H]3O[C@]4(O)O[C@@H]([C@@H](O)[C@@]2(N1)[C@@H]4O)[C@]3(O)CO [tetrodotoxin]
effect on calcium flux (neuronal) activity (neurons seeded in chip): ablates this activity
neuron activity (calcium transients) [1]: completely ablated

Dextran
diffusion from Vascular Channel to Neuronal Channel [2]: low diffusion

TNFa
iBMEC barrier function (TEER) after exposure (iBMEC barrier function): weakening of barrier function; also recorded: decrease in barrier function and TEER
permeability through the semi-porous membrane by dextran-FITC after exposure [3]: increase in permeability

transferrin: human transferrin measured by ELISA
diffusion / level in neuronal channel, from Vascular Channel to Neuronal Channel [4]: High levels
